These are literature values, as cited in article PMC2150373, “Phase I study of the mitomycin C analogue BMS-181174” (British Journal of Cancer, 1998).

This series concerns patients. Particulars: clinical use of MMC, Rabadi et al, 1982, cited from earlier work.

Each structure is given as a SMILES string.

In the case of `CO[C@@]12[C@H](COC(N)=O)C3=C(C(=O)C(C)=C(N)C3=O)N1C[C@@H]1N[C@@H]12` [MMC, Mitomycin C], the “patients with a rise in serum creatinine” value (ref Martino et al, 1979, Ratanatharathom et al) is reported as 2%. Moreover, the dose-limiting toxicity result (ref Carter and Crooke, 1979) was “myelosuppression”.
